Data on six compounds can be found in paper PMC4887296 (Biochemistry, 2016).

Read-outs that look alike come from different tables or passages of the source.

The target of assay [1] is T1, wild-type ypFabV (Yersinia pestis, UniProt Q8Z9U1). The class given is biochemical.
Assay [2] addresses T1, wild-type ypFabV. The class given is biochemical. This is another data set of the same source.
A further assay deals with Wt ypFabV (Yersinia pestis, UniProt Q8Z9U1). The assay is described as follows: biochemical. It is filed as binding.
Chain of Wt ypFabV (Q8Z9U1 whole entry, looked up): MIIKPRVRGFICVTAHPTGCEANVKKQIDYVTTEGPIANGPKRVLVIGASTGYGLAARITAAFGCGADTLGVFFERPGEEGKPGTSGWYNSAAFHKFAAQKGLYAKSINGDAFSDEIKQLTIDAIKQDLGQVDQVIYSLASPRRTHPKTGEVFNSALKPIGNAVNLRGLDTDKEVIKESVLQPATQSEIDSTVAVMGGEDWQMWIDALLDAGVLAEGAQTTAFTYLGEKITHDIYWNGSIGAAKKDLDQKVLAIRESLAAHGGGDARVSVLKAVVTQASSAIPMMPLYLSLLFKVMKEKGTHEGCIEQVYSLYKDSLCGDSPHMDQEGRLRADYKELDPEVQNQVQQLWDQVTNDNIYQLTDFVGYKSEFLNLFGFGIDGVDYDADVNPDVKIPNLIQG

T1 sequence (Q8Z9U1 whole entry, looked up): as above

For the compound `NC(=O)c1ccc[n+]([C@@H]2O[C@H](COP(=O)([O-])OP(=O)(O)OC[C@H]3O[C@@H](n4cnc5c(N)ncnc54)[C@H](O)[C@@H]3O)[C@@H](O)[C@H]2O)c1` [NAD^+], at wild-type ypFabV [1], the “product inhibition pattern with respect to NADH, wild-type ypFabV” value is given as “competitive” and the “product inhibition pattern with respect to ddCoA, wild-type ypFabV” value is on record as “noncompetitive”.
For `CCCCCCC/C=C/C(=O)SCCNC(=O)CCNC(=O)[C@H](O)C(C)(C)COP(=O)(O)OP(=O)(O)OC[C@H]1O[C@@H](n2cnc3c(N)ncnc32)[C@H](O)[C@@H]1OP(=O)(O)O` [trans-2-decenoyl-CoA], the “kcat, wild-type ypFabV” value at wild-type ypFabV [2] came to 5.53 ± 0.333 s⁻¹. In addition, the Km (as a rule, the substrate concentration at which the rate is half of its maximum) on wild-type ypFabV [2] (read-out: KM, wild-type ypFabV) was found to be 23 ± 3 µM.
As to `NC(=O)C1=CN([C@@H]2O[C@H](COP(=O)(O)OP(=O)(O)OC[C@H]3O[C@@H](n4cnc5c(N)ncnc54)[C@H](O)[C@@H]3O)[C@@H](O)[C@H]2O)C=CC1` [NADH], the Michaelis-Menten constant (Km) on wild-type ypFabV [2] (read-out: KM (global fit)) amounted to 10 ± 1 µM. For the same compound, the inhibitory constant (Ki) (usually a measure of affinity in units of concentration, obtained from inhibition or displacement) at wild-type ypFabV [2] (read-out: Ki, NADH) was 22 ± 3 µM. In addition, the Kd (in general, the constant that tells how readily two partners part at equilibrium) at Wt ypFabV (read-out: Kd Wt ypFabV, pH 8) turned out to be 13 ± 1 µM.
For the compound `CCCCC/C=C/C(=O)SCCNC(=O)CCNC(=O)[C@H](O)C(C)(C)COP(=O)(O)OP(=O)(O)OC[C@H]1O[C@@H](n2cnc3c(N)ncnc32)[C@H](O)[C@@H]1OP(=O)(O)O` [trans-2-octenoyl-CoA], the “kcat, wild-type ypFabV” value at wild-type ypFabV [2] amounted to 0.267 ± 0.017 s⁻¹. The Michaelis-Menten constant (Km) at wild-type ypFabV [2] (read-out: KM, wild-type ypFabV) turned out to be 7 ± 1 µM.
On to `CCCCCCCCCCCC(=O)SCCNC(=O)CCNC(=O)[C@H](O)C(C)(C)COP(=O)(O)OP(=O)(O)OC[C@H]1O[C@@H](n2cnc3c(N)ncnc32)[C@H](O)[C@@H]1OP(=O)(O)O` [lauroyl-CoA, Lauroyl-CoA], for which, at wild-type ypFabV [1], the “product inhibition pattern with respect to NADH, wild-type ypFabV” value was “noncompetitive” and the “product inhibition pattern with respect to ddCoA, wild-type ypFabV” value is “noncompetitive”.
In the case of `CCCCCCCCC/C=C/C(=O)SCCNC(=O)CCNC(=O)[C@H](O)C(C)(C)COP(=O)(O)OP(=O)(O)OC[C@H]1O[C@@H](n2cnc3c(N)ncnc32)[C@H](O)[C@@H]1OP(=O)(O)O` [ddCoA, trans-2-dodecenoyl-CoA], at wild-type ypFabV [2], the “kcat (global fit)” value came to 97.67 ± 6.47 s⁻¹. Besides, on wild-type ypFabV [2], the “kcat, wild-type ypFabV” value came out at 91.13 ± 7.1 s⁻¹. Further, the Michaelis-Menten constant (Km) on wild-type ypFabV [2] (read-out: KM (global fit)) was found to be 19 ± 1 µM; at wild-type ypFabV [2] (read-out: KM, wild-type ypFabV), 14 ± 1 µM. At Wt ypFabV, this compound registered a dissociation constant Kd of 13 ± 1 µM.
